Values of other authors, collected in US5739112A, “Inhibitors of factor Xa” (Corvas International, Inc., priority 1995, dated 1998).

How the values were obtained:
Conditions in all cases: Turner et al., p. 4932; cited from earlier work
Human factor XIa = system: Human factor XIa
human thrombin = human thrombin (Homo sapiens, UniProt P00734)
Human factor Xa = molecular target: T1, Human factor Xa (Homo sapiens, UniProt P00742)
T1 construct: Human factor X contains a light-chain subunit containing 139 amino acid residues; purchased Enzyme Research Laboratories
T1 sequence (P00742 235-488 limits assumed): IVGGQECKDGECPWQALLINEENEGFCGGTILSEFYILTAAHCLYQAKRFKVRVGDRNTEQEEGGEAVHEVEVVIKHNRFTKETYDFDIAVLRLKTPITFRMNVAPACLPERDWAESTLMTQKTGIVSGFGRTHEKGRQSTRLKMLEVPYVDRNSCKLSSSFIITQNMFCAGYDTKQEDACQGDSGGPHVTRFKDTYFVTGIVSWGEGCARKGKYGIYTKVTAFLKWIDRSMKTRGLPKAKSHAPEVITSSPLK
T1 sequence (P00742 41-179 partner limits assumed): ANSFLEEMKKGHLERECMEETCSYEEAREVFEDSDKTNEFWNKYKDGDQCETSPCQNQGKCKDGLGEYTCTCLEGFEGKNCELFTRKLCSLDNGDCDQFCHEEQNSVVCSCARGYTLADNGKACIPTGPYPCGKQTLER

Structure (SMILES): CC(=Cc1ccccc1)C(=O)Oc1ccc(C(=N)N)cc1 [p-Amidinophenyl α-methylcinnamate]
- second-order rate constant of inactivation, human factor XIa (Human factor XIa): 2670 M⁻¹ s⁻¹
- second-order rate constant of inactivation, human thrombin (human thrombin): 2670 M⁻¹ s⁻¹
- second-order rate constant of inactivation, human factor Xa (Human factor Xa): 1650 M⁻¹ s⁻¹
